As usually defined, the ED50 is the dose at which the effect has come halfway, by size or by number of responders.

SMILES strings stand for the structures.

The test system of this assay is Intestinal motility in dogs (jejunum). Nature of the assay: Intestinal motility in dogs (inhibition of jejunal motility, balloon method). In kind it is in vivo, dog (mongrel). To be noted: Canis lupus familiaris; mongrel dogs 8 to 16 kg, urethane (1.5 g/kg) and morphine (15 mg/kg) anesthesia; balloon at jejunum, 10 cm H2O; maximum change in motility amplitude; route not given; read-out: 50% inhibition dose (ED50). Here is the method: Intestinal motility in dogs: Method: Mongrel dogs weighing 8 to 16 kg which were withheld from any food and water for 24 hours were anesthetized with a combination of urethane (1.5 g/kg) and morphine (15 mg/kg). A balloon was placed at the jejunum of the dog, compressed at a pressure of 10 cm. H2 O and connected to a strain gauge. Changes in the motility were principally recorded in terms of the amplitude of the movements, but the number of movements occurring were also taken into account. The maximum change in all the determinations served as the basis for calculations of the 50% inhibition dose (ED50).
On to `Oc1cc2c(cc1O)C(CNc1ccc(F)cc1)NCC2` (stereo not drawn) [Compound No. 1, 1-(p-Fluoroanilinomethyl)-6,7-dihydroxy-1,2,3,4-tetrahydroisoquinoline d-camphor-10-sulfonate], for which the ED50 worked out at 3 µg/kg.

Take `Cl.Cl.Oc1ccc(NCC2NCCc3cc(O)c(O)cc32)cc1` (stereo not drawn) [Compound No. 3, 1-(p-Hydroxyanilinomethyl)-6,7-dihydroxy-1,2,3,4-tetrahydroisoquinoline dihydrochloride]: the median effective dose (ED50) is 4 µg/kg.

Take `Cl.Oc1cc2c(cc1O)C(CNc1ccc(Cl)cc1)NCC2` (stereo not drawn) [Compound No. 2, 1-(p-Chloroanilinomethyl)-6,7-dihydroxy-1,2,3,4-tetrahydroisoquinoline hydrochloride]: the ED50 is 1.5 µg/kg.
